Tests used:
Test in all cases: Generic kinase assay (33P-ATP, Myelin Basic Protein)
Assay type in all cases: biochemical
RIP = molecular target: T1, RIP (Homo sapiens, UniProt Q13546); conditions: class symbol: % inhibition at 10 μM or IC50
T1 sequence (Q13546 1-671): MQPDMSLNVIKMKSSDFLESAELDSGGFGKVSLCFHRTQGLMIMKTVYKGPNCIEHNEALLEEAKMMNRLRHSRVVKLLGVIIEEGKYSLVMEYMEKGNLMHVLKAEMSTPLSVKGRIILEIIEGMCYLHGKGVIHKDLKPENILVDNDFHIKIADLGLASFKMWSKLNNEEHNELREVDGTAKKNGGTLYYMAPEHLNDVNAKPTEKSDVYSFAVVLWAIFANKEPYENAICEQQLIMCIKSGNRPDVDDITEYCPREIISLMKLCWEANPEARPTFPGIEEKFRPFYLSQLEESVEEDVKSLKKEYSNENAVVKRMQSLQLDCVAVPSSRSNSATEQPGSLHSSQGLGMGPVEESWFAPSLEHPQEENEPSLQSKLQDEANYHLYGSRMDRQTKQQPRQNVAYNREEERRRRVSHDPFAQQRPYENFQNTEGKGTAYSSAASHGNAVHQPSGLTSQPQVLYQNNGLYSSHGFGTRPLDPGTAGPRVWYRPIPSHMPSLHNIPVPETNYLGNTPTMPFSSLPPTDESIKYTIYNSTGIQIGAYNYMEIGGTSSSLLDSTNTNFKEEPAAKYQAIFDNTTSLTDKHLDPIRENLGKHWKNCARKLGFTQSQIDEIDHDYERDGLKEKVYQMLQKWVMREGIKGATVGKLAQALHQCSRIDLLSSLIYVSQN
Method in brief: (§1)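 Myelin basic protein was phosphorylated with [γ-33P]ATP plus unlabelled ATP (4 µM in the three-fold concentrated mix) in Tris-HCl pH 7.5, MgCl2 and DTT. Kinase was titrated to about 10% ATP turnover, and reactions ran 1 h at room temperature before EDTA stop. Incorporated 33P was captured on filter plates washed with 0.75% H3PO4 and counted by scintillation.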

RICK = RICK (Homo sapiens, UniProt O43353); conditions: class symbol: % inhibition at 10 μM or IC50
Sequence of RICK (O43353 whole entry, species assumed): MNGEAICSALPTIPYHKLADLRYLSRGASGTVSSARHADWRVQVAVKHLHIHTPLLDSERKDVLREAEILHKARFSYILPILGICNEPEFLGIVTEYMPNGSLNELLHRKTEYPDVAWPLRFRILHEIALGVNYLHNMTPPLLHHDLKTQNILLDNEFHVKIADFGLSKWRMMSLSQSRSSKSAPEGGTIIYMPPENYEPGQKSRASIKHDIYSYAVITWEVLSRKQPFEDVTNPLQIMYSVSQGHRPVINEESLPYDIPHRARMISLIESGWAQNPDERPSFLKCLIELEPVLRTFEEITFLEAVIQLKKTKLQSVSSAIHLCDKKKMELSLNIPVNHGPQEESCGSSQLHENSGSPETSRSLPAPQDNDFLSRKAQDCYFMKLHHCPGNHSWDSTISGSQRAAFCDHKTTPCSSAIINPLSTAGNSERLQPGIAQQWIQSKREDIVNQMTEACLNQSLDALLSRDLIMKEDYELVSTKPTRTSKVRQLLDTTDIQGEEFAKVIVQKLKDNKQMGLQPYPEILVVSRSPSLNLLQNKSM
Method in brief: as §1

IKKb = molecular target: T2, IKKb (Homo sapiens, UniProt O14920); conditions: class symbol: % inhibition at 10 μM or IC50
T2 sequence (O14920 1-756): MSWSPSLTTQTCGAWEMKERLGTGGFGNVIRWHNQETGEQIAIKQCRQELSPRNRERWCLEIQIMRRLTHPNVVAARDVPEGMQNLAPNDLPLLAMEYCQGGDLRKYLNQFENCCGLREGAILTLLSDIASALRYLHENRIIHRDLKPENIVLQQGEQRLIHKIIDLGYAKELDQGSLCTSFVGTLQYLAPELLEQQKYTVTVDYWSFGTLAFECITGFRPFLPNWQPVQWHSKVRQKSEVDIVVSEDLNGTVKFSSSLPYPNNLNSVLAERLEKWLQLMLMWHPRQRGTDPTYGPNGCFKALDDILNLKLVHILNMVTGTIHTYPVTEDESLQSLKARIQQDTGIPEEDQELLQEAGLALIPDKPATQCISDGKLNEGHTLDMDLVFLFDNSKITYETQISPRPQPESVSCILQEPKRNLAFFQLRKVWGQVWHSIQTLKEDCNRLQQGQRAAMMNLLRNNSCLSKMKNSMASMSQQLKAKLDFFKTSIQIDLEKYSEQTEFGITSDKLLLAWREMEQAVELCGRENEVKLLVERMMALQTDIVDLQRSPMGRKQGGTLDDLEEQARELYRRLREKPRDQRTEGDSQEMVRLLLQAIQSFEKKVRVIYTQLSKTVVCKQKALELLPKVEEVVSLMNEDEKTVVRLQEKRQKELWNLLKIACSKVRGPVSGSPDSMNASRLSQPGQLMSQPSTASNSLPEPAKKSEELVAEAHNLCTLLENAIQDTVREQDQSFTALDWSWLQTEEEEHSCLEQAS
Method in brief: as §1

CDK1/CyclinB = CDK1/CyclinB (Homo sapiens, UniProt P06493); conditions: class symbol: % inhibition at 10 μM or IC50
Method in brief: as §1

CDK5/p35 = CDK5/p35 (Homo sapiens, UniProt Q00535); conditions: class symbol: % inhibition at 10 μM or IC50
Method in brief: as §1

PDGFR = conditions: class symbol: % inhibition at 10 μM or IC50
Method in brief: as §1

GSK-3beta = GSK-3beta (Homo sapiens, UniProt P49841); conditions: class symbol: % inhibition at 10 μM or IC50
Method in brief: as §1

ROCK 2 = ROCK 2 (Homo sapiens, UniProt O75116); conditions: class symbol: % inhibition at 10 μM or IC50
Method in brief: as §1

EGFR = EGFR (Homo sapiens, UniProt P00533); conditions: class symbol: % inhibition at 10 μM or IC50
Sequence of EGFR (P00533 25-1210, species assumed): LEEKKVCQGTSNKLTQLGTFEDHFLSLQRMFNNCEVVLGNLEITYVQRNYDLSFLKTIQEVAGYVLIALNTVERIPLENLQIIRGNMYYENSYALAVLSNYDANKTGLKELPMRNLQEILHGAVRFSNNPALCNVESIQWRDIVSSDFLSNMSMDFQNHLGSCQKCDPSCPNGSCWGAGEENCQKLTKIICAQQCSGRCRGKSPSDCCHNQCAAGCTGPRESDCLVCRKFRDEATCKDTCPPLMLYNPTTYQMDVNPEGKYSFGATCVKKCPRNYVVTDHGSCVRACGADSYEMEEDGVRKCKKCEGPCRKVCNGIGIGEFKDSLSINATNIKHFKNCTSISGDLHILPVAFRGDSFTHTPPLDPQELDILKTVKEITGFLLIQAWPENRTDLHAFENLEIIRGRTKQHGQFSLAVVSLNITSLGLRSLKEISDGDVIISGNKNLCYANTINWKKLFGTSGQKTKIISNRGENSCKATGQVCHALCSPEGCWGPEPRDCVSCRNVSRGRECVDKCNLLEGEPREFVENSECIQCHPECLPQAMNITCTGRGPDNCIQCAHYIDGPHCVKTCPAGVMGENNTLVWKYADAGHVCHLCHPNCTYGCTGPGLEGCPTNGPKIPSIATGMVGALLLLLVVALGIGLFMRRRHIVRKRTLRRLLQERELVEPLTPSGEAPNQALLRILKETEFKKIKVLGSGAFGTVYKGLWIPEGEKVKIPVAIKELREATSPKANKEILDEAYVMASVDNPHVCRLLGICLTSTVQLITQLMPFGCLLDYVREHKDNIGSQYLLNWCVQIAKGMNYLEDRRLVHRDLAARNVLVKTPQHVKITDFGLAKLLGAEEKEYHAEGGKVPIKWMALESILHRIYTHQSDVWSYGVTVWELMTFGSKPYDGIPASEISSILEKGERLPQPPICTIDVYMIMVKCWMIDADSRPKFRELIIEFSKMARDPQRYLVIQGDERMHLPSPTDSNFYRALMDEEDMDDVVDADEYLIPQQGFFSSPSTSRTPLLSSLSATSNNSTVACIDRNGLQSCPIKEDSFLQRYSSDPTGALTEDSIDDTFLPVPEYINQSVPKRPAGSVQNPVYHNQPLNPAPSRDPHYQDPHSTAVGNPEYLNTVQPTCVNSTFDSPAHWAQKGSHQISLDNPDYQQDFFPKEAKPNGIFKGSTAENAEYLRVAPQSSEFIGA
Method in brief: as §1

CDK2/CyclinA = CDK2/CyclinA (Homo sapiens, UniProt P24941); conditions: class symbol: % inhibition at 10 μM or IC50
Method in brief: as §1

p56Lck = p56Lck (Homo sapiens, UniProt P06239); conditions: 1 h; class symbol: % inhibition at 10 μM or IC50; read-out: Inhibitory effect on target p56Lck
Sequence of p56Lck (P06239 whole entry, species assumed): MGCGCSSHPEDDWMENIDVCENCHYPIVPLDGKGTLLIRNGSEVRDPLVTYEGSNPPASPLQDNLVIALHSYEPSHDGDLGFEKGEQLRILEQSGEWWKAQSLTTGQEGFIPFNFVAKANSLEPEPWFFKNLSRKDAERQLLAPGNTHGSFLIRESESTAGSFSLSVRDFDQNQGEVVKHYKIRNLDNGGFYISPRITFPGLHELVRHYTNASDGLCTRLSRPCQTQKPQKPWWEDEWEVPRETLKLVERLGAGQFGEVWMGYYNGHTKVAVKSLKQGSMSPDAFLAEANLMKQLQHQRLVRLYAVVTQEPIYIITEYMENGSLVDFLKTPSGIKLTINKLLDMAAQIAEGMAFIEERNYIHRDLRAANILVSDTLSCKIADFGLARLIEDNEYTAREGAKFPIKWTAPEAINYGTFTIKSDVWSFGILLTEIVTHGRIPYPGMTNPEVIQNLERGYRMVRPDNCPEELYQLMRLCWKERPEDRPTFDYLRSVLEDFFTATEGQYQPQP
Method in brief: as §1

cRaf = cRaf (Homo sapiens, UniProt P04049); conditions: 1 h; class symbol: % inhibition at 10 μM or IC50; read-out: Inhibitory effect on target cRaf
Sequence of cRaf (P04049 whole entry, species assumed): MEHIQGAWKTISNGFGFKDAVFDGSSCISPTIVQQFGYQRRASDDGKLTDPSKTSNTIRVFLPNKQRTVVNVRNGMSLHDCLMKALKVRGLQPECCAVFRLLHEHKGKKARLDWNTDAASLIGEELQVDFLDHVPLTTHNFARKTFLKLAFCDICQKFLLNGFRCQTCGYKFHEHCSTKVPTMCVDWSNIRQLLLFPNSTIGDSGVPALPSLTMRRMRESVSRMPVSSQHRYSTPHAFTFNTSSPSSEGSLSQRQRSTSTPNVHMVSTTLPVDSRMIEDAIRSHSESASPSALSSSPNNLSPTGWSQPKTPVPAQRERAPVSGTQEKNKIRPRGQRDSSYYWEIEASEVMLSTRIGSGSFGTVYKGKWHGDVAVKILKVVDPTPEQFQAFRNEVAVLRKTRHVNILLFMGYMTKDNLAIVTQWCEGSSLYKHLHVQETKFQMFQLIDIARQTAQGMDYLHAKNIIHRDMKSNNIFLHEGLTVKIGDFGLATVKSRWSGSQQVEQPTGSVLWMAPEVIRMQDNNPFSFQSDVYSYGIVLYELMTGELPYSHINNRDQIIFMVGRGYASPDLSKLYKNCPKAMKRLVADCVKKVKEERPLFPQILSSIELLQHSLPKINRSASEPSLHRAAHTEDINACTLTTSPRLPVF
Method in brief: as §1

c-kit = c-kit (Homo sapiens, UniProt P10721); conditions: 1 h; class symbol: % inhibition at 10 μM or IC50; read-out: Inhibitory effect on target c-kit
Sequence of c-kit (P10721 26-976): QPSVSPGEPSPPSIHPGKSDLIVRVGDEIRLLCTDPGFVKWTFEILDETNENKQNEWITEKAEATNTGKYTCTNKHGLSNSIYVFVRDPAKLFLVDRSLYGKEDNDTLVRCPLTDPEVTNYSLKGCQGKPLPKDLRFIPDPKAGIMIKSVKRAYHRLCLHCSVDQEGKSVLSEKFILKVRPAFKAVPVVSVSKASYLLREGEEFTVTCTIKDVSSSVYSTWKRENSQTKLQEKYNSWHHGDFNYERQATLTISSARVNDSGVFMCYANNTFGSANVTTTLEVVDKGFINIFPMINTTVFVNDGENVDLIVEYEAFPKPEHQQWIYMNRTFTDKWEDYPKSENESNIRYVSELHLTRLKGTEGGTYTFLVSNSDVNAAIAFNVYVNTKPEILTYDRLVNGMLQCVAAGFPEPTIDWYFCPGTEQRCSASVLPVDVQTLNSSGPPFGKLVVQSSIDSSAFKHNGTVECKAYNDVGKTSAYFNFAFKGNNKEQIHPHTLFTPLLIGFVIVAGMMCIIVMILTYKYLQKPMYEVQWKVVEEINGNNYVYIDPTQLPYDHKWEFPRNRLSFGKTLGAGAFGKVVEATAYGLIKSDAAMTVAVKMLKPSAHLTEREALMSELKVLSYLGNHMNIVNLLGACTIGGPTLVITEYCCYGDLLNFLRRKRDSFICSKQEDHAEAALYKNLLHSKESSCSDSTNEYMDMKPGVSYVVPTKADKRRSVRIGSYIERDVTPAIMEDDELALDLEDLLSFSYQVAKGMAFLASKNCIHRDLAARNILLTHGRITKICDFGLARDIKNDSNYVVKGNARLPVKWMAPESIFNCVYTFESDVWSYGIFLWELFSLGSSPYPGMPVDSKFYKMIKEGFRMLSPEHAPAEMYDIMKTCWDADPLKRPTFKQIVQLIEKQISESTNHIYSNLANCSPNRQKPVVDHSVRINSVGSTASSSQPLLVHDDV
Method in brief: as §1

Abl = Abl (Homo sapiens, UniProt P00519); conditions: 1 h; class symbol: % inhibition at 10 μM or IC50; read-out: Inhibitory effect on target Abl
Sequence of Abl (P00519 whole entry, species assumed): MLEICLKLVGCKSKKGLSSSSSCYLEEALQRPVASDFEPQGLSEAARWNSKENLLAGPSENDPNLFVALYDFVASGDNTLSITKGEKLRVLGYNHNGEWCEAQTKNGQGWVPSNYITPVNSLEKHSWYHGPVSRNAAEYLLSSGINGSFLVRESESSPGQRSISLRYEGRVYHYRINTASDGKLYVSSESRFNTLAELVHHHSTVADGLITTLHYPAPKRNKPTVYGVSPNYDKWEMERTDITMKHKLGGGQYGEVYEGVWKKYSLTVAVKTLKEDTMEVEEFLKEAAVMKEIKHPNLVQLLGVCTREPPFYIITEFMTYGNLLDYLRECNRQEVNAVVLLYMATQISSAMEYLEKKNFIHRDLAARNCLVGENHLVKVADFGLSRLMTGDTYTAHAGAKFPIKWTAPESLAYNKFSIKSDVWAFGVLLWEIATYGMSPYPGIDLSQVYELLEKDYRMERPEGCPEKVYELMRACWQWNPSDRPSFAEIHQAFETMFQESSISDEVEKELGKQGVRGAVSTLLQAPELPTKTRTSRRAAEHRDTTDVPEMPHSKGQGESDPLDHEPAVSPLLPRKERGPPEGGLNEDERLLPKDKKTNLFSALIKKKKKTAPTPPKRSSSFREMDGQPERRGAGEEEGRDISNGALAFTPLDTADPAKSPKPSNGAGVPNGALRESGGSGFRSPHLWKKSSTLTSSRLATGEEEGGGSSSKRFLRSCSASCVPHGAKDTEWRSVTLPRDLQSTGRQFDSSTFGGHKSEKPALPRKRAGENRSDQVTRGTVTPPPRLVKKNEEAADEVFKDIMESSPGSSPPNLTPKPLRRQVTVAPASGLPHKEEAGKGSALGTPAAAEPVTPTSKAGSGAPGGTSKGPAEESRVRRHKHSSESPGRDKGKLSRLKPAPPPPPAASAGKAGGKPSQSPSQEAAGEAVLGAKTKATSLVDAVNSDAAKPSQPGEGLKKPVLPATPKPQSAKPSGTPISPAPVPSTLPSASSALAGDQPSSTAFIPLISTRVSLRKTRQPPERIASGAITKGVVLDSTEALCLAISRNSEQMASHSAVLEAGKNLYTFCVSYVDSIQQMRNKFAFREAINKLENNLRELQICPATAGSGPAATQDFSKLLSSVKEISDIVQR
Method in brief: as §1

p38 = p38 (Homo sapiens, UniProt Q16539); conditions: class symbol: % inhibition at 10 μM or IC50
Method in brief: as §1

c-Src = c-Src (Homo sapiens, UniProt P12931); conditions: class symbol: % inhibition at 10 μM or IC50
Method in brief: as §1

UL97 = UL97 (Human cytomegalovirus, UniProt P16788); conditions: class symbol: % inhibition at 10 μM or IC50
Method in brief: as §1

Row | SMILES | Inhibitory effect on target RICK (RICK) | inhibition at 10 µM (p56Lck) | inhibition at 10 µM (cRaf) | inhibition at 10 µM (c-kit) | inhibition at 10 µM (Abl) | Inhibitory effect on target IKKb (IKKb) | Inhibitory effect on target PDGFR (PDGFR) | Inhibitory effect on target EGFR (EGFR) | also measured
1 | Clc1cccc(Nc2cncc(-c3ccncc3)c2)c1 [Compound 166, [3,4′]Bipyridinyl-5-yl-(3-chloro-phenyl)-amine] |  |  |  |  |  |  |  |  | Inhibitory effect on target RIP (RIP): A (A: 50-90% inhibition at 10 μM enzyme concentration); inhibition at 10 µM (RICK; 1 h, read-out: Inhibitory effect on target RICK): 50 to 90%
2 | CC(=O)Nc1cccc(-c2cncc(Nc3ccc(C#N)cc3)c2)c1 [Compound 205, N-{3-[5-(4-Cyano-phenylamino)-pyridin-3-yl]-phenyl}-acetamide] | C (C: IC50 measured: <1 μM) |  |  |  |  | A (A: 50-90% inhibition at 10 μM enzyme concentration) | A (A: 50-90% inhibition at 10 μM enzyme concentration) |  | Inhibitory effect on target CDK1/CyclinB (CDK1/CyclinB): A (A: 50-90% inhibition at 10 μM enzyme concentration); Inhibitory effect on target CDK5/p35 (CDK5/p35): A (A: 50-90% inhibition at 10 μM enzyme concentration)
3 | Oc1ccc(-c2cncc(NCc3cccc(O)c3)c2)cc1 [Compound 212, 3-{[5-(4-Hydroxy-phenyl)-pyridin-3-ylamino]-methyl}-phenol] | C (C: IC50 measured: <1 μM) | > 90% | 50 to 90% | > 90% | 50 to 90% |  | A (A: 50-90% inhibition at 10 μM enzyme concentration) | A (A: 50-90% inhibition at 10 μM enzyme concentration) | Inhibitory effect on target GSK-3beta (GSK-3beta): A (A: 50-90% inhibition at 10 μM enzyme concentration); Inhibitory effect on target ROCK 2 (ROCK 2): C (C: IC50 measured: <1 μM); Inhibitory effect on target CDK2/CyclinA (CDK2/CyclinA): B (B: >90% inhibition at 10 μM enzyme concentration)
4 | CC(=O)Nc1cccc(-c2cncc(NCc3cccc(O)c3)c2)c1 [Compound 221, N-{3-[5-(3-Hydroxy-benzylamino)-pyridin-3-yl]-phenyl}-acetamide] | C (C: IC50 measured: <1 μM) | > 90% | 50 to 90% | > 90% | 50 to 90% |  | A (A: 50-90% inhibition at 10 μM enzyme concentration) | A (A: 50-90% inhibition at 10 μM enzyme concentration) | Inhibitory effect on target p38 (p38): A (A: 50-90% inhibition at 10 μM enzyme concentration)
5 | O=C(Nc1cncc(-c2cccc(O)c2)c1)c1cccc(O)c1 [Compound 234, 3-Hydroxy-N-[5-(3-hydroxy-phenyl)-pyridin-3-yl]-benzamide] | C (C: IC50 measured: <1 μM) | > 90% | 50 to 90% | 50 to 90% | 50 to 90% | A (A: 50-90% inhibition at 10 μM enzyme concentration) | B (B: >90% inhibition at 10 μM enzyme concentration) | B (B: >90% inhibition at 10 μM enzyme concentration) | Inhibitory effect on target c-Src (c-Src): B (B: >90% inhibition at 10 μM enzyme concentration)

Second part, led by results:

Row | Inhibitory effect on target RICK (RICK) | inhibition at 10 µM (p56Lck) | inhibition at 10 µM (cRaf) | inhibition at 10 µM (c-kit) | inhibition at 10 µM (Abl) | SMILES | Inhibitory effect on target IKKb (IKKb) | Inhibitory effect on target PDGFR (PDGFR) | Inhibitory effect on target EGFR (EGFR) | also measured
6 | C (C: IC50 measured: <1 μM) |  |  |  |  | CC(=O)Nc1cccc(-c2cncc(Nc3ccccc3F)c2)c1 [Compound 237, N-{3-[5-(2-Fluoro-phenylamino)-pyridin-3-yl]-phenyl}-acetamide] | A (A: 50-90% inhibition at 10 μM enzyme concentration) | A (A: 50-90% inhibition at 10 μM enzyme concentration) | A (A: 50-90% inhibition at 10 μM enzyme concentration) | Inhibitory effect on target CDK1/CyclinB (CDK1/CyclinB): A (A: 50-90% inhibition at 10 μM enzyme concentration)
7 | C (C: IC50 measured: <1 μM) |  |  |  |  | CN(Cc1cccc(O)c1)c1cncc(-c2cccc(O)c2)c1 [Compound 241, 3-{5-[(3-Hydroxy-benzyl)-methyl-amino]-pyridin-3-yl}-phenol] |  |  |  | inhibition at 10 µM (ROCK 2; 1 h, read-out: Inhibitory effect on target ROCK 2): 50 to 90%; Inhibitory effect on target UL97 (UL97): C (C: IC50 measured: <1 μM)
8 | C (C: IC50 measured: <1 μM) |  | 50 to 90% |  |  | Nc1cccc(CNc2cncc(-c3cccc(O)c3)c2)c1 [Compound 245, 3-[5-(3-Amino-benzylamino)-pyridin-3-yl]-phenol] |  |  |  | Inhibitory effect on target UL97 (UL97): C (C: IC50 measured: <1 μM)

Source: patent US20090196912A1, “Pyridinylamines” (GPC Botech AG, priority 2004, published 2009)
